Reference: patent publication US8653111B2, “Substituted dihydropyrazolones for treating cardiovascular and hematological diseases” (Bayer Intellectual Property GmbH, priority 2006, dated 2014)
Structures can show the parent of a compound that is named as a salt.

molecular target: HIF prolyl hydroxylase; assay: Inhibition of the activity of HIF prolyl hydroxylase (VBC complex binding to hydroxylated peptide substrate); format: biochemical; details: cell lysate containing prolyl hydroxylase, peptide biotin-DLDLEMLAPYIPMDDDFQL as substrate
Method: 1. In vitro Tests for Determination of the Activity and Selectivity of HIF Prolyl 4-Hydroxylase Inhibitors 1.a) Inhibition of the Activity of HIF Prolyl Hydroxylase:
Hydroxylated HIF bonds specifically to the von Hippel-Lindau protein-elongin B-elongin C complex (VBC complex). This interaction occurs only if HIF is hydroxylated on a conserved prolyl radical. It is the basis for the biochemical determination of HIF prolyl hydroxylase activity. The test is carried out as described [Oehme F., Jonghaus W., Narouz-Ott L., Huetter J., Flamme I., Anal. Biochem. 330 (1), 74-80 (2004)]:
A clear 96-well microtiter plate coated with NeutrAvidin HBC (Pierce) is incubated with blocker casein for 30 minutes. The plate is then washed three times with 200 μl each time of wash buffer (50 mM Tris, pH 7.5, 100 mM NaCl, 10% (v/v) blocker casein, 0.05% (v/v) Tween 20) per well. The peptide biotin-DLDLEMLAPYIPMDDDFQL (Eurogentec, 4102 Seraing, Belgium) is added in a concentration of 400 nM in 100 μl wash buffer. This peptide serves as a substrate for the prolyl hydroxylation and is bonded to the microtiter plate. After incubation for 60 minutes, the plate is washed three times with wash buffer, incubated with 1 mM biotin in blocker casein for 30 minutes and then washed again three times with wash buffer.
To carry out the prolyl hydroxylase reaction, the peptide substrate bonded to the plate is incubated with a cell lysate containing prolyl hydroxylase for 1 to 60 minutes. The reaction takes place in 100 μl reaction buffer (20 mM Tris, pH 7.5, 5 mM KCl, 1.5 mM MgCl2, 1 μM-1 mM 2-oxoglutarate, 10 μM FeSO4, 2 mM ascorbate) at room temperature. The reaction mixture moreover contains various concentrations of the prolyl hydroxylase inhibitor to be tested. The test substance is preferably, but not exclusively, employed at concentrations of between 1 nM and 100 μM. The reaction is stopped by washing the plate three times with wash buffer.
For quantitative determination of the prolyl hydroxylation, a fusion protein which contains both thioredoxin from E. coli and the VBC complex in 80 μl bonding buffer (50 mM Tris, pH 7.5, 120 mM NaCl) is added. After 15 minutes, 10 μl of a solution of polyclonal anti-thioredoxin antibodies from rabbit in bonding buffer are added. After a further 30 minutes, 10 μl of a solution of anti-rabbit immunoglobulin coupled to horseradish peroxidase in bonding buffer are added. After incubation at room temperature for 30 minutes, the plate is washed three times with wash buffer in order to remove non-bonded VBC complex and antibodies. To determine the amount of bonded VBC complex, the plate is incubated with TMB for 15 minutes. The color reaction is ended by addition of 100 μl 1 M sulfuric acid. The amount of bonded VBC complex is determined by measurement of the optical density at 450 nm. It is proportional to the amount of hydroxylated proline in the peptide substrate.
Alternatively, a VBC complex coupled to europium (Perkin Elmer) can be used for detection of the prolyl hydroxylation. In this case, the amount of bonded VBC complex is determined by the fluorescence with respect to time. The use of VBC complex labeled with [^35S]-methionine is moreover possible. For this, the radioactively labeled VBC complex can be prepared by in vitro transcription-translation in reticulocyte lysate.

IC50 [nM]	SMILES
1400	CCc1cc(-n2[nH]cc(-n3cnc(C(F)(F)F)c3)c2=O)ncn1 [Example 60]
560	O=c1c(-n2ccnn2)c[nH]n1-c1cc(C2CC2)ncn1 [Example 17, 2-(6-Cyclopropylpyrimidin-4-yl)-4-(1H-1,2,3-triazol-1-yl)-1,2-dihydro-3H-pyrazol-3-one hydrochloride]
1200	O=c1c(-c2nnc(C(F)(F)F)s2)c[nH]n1-c1ccccn1 [Example 5]
490	O=c1c(-n2ccnn2)c[nH]n1-c1cc(N2CCOCC2)ncn1 [Example 72, 2-(6-Morpholin-4-ylpyrimidin-4-yl)-4-(1H-1,2,3-triazol-1-yl)-1,2-dihydro-3H-pyrazol-3-one hydrochloride]
350	CCSc1cc(-n2[nH]cc(-n3ccnn3)c2=O)ncn1 [Example 103, 2-[6-(Ethylsulfanyl)pyrimidin-4-yl]-4-(1H-1,2,3-triazol-1-yl)-1,2-dihydro-3H-pyrazol-3-one hydrochloride]
1900	O=c1c(-n2ccnn2)c[nH]n1-c1cc(C(F)(F)F)ccn1 [Example 83, 4-(1H-1,2,3-Triazol-1-yl)-2-[4-(trifluoromethyl)pyridin-2-yl]-1,2-dihydro-3H-pyrazol-3-one hydrochloride]
690	COC1CCCN(c2cc(-n3[nH]cc(-n4ccnc4)c3=O)ncn2)C1 (centres unmarked) [Example 166]
340	Cc1ccnc(-n2[nH]cc(-n3ccnn3)c2=O)c1 [Example 7, 2-(4-Methylpyridin-2-yl)-4-(1H-1,2,3-triazol-1-yl)-1,2-dihydro-3H-pyrazol-3-one hydrochloride]
500	O=c1c(-n2ccnc2)c[nH]n1-c1cc(N2CCCCC2)ncn1 [Example 10, 4-(1H-Imidazol-1-yl)-2-(6-piperidin-1-ylpyrimidin-4-yl)-1,2-dihydro-3H-pyrazol-3-one]
2800	Cc1cnc(-n2[nH]cc(-n3ccnc3)c2=O)cc1C [Example 91, 2-(4,5-Dimethylpyridin-2-yl)-4-(1H-imidazol-1-yl)-1,2-dihydro-3H-pyrazol-3-one hydrochloride]
1700	O=c1c(-n2ccnc2)c[nH]n1-c1cc(N2CC(O)C2)ncn1 [Example 101, 2-[6-(3-Hydroxyazetidin-1-yl)pyrimidin-4-yl]-4-(1H-imidazol-1-yl)-1,2-dihydro-3H-pyrazol-3-one hydrochloride]
750	O=c1c(-n2cnc(C(F)(F)F)c2)c[nH]n1-c1ccc(CO)cn1 [Example 12, 2-[5-(Hydroxymethyl)pyridin-2-yl]-4-[4-(trifluoromethyl)-1H-imidazol-1-yl]-1,2-dihydro-3H-pyrazol-3-one]
1800	Cc1cn(-c2c[nH]n(-c3cnccn3)c2=O)nn1 [Example 43]
740	O=c1c(-n2ccnn2)c[nH]n1-c1cc(N2CCSCC2)ncn1 [Example 113]
190	CC(C)(C)COc1ccc(-n2[nH]cc(-n3ccnn3)c2=O)nc1 [Example 85, 2-[5-(2,2-Dimethylpropoxy)pyridin-2-yl]-4-(1H-1,2,3-triazol-1-yl)-1,2-dihydro-3H-pyrazol-3-one hydrochloride]
50	CC(C)(C)OC(=O)c1ccc(-n2[nH]cc(-n3ccnn3)c2=O)nc1 [Example 62, 6-[5-Oxo-4-(1H-1,2,3-triazol-1-yl)-2,5-dihydro-1H-pyrazol-1-yl]pyridine-3-carboxylic acid tert-butyl ester hydrochloride]
1100	Cc1cc(-n2[nH]cc(-n3ccnn3)c2=O)ncc1Br [Example 61]
360	CC1CCN(c2cc(-n3[nH]cc(-n4ccnn4)c3=O)ncn2)CC1 [Example 129]
1400	Cc1cc(-c2c[nH]n(-c3ccccn3)c2=O)on1 [Example 50]
780	CC(C)c1cn(-c2c[nH]n(-c3ccc(CO)cn3)c2=O)nn1 [Example 45]
